The values below come from patent US20160122320A1, “USEFUL COMBINATIONS OF MONOBACTAM ANTIBIOTICS WITH BETA-LACTAMASE INHIBITORS” (Basilea Pharmaceutica AG, priority 2005, published 2016).

Structures can show the parent of a compound that is named as a salt.

Common to all, as to assay: MIC, NCCLS broth microdilution
Assay type in all cases: cell-based
A general note: Dilution methods test growth across graded concentrations, often in twofold steps.

Experiment [1] relates to Stenotrophomonas malthophilia 1AC736. The following applies: for MIC of antibiotic at fixed inhibitor concentration (4 mg/L): Stenotrophomonas malthophilia 1AC736, MIC of antibiotic compound 1 with the labelled bridged monobactam of formula II and clavulanate, 4 mg/L each.
The test system of another experiment is Acinetobacter sp. J2. The following applies: for MIC of antibiotic at fixed inhibitor concentration (4 mg/L): Acinetobacter sp. J2, MIC of antibiotic compound 1 with the labelled bridged monobactam of formula II and clavulanate, 4 mg/L each.
Experiment [2] deals with Pseudomonas aeruginosa 1973E. The following applies: for MIC of antibiotic at fixed inhibitor concentration (4 mg/L): MIC of antibiotic compound 1 with the labelled bridged monobactam of formula II and clavulanate, 4 mg/L each. Put shortly:
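Growth inhibition read by eye after overnight incubation (30° C. or 37° C.) defines the MIC, using NCCLS M7-A5 broth microdilution with ≤1% DMSO. When combinations were tested, only the formula I compound was titrated and each partner was fixed at 4 μg/mL.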

Experiment [3] deals with Pseudomonas aeruginosa MK1184. The following applies: for MIC of antibiotic at fixed inhibitor concentration (4 mg/L): MIC of antibiotic compound 1 with the labelled bridged monobactam of formula II and clavulanate, 4 mg/L each.
The subject of the next experiment is Serratia marcescens S6. As to conditions: for MIC of antibiotic at fixed inhibitor concentration (4 mg/L): MIC of antibiotic compound 1 with the labelled bridged monobactam of formula II and clavulanate, 4 mg/L each.
Experiment [4] concerns Klebsiella pneumoniae CF104. The following applies: for MIC of antibiotic at fixed inhibitor concentration (4 mg/L): MIC of antibiotic compound 1 with the labelled bridged monobactam of formula II and clavulanate, 4 mg/L each.
Procedure: (§1) Antimicrobial activity of the compounds and of their combinations was determined against a selection of organisms according to the standard procedures described by the National Committee for Clinical Laboratory Standards (National Committee for Clinical Laboratory. Standards (2000). Methods for Dilution Antimicrobial Susceptibility Tests for Bacteria That Grow Aerobically-Fifth Edition: Approved Standard M7-A5. NCCLS, Wayne, Pa., USA).
(§2) In all cases the final concentration of DMSO incubated with the bacteria is less than or equal to 1%. […] Plates were incubated overnight at an appropriate temperature (30° C. or 37° C.) and optical densities assessed by eye. The MIC value is defined as the lowest compound concentration completely inhibiting visible growth of the test organism. When combinations between compounds of formula I with compounds of formula II and are evaluated the compounds of formula I are tested in dilution series as described above while the compounds of formula II and III-XIII were present in all wells at a constant concentration of 4 μg/mL each.
The test system of a further experiment is Enterobacter cloacae P99. As to conditions: for MIC of antibiotic at fixed inhibitor concentration (4 mg/L): MIC of antibiotic compound 1 with the labelled bridged monobactam of formula II and clavulanate, 4 mg/L each.
Where [5] appears, read: with clavulanate (clavulanic acid).

Procedure for Enterobacter cloacae P99: as §1, §2

On to `NC(=O)c1cnccc1C(=O)NCC(=O)N1CC[C@@H]2[C@H]1C(=O)N2S(=O)(=O)O` [Compound 402, (1S,5R)-2-{2-[(3-carbamoylpyridyl-4)carbonylamino]acetyl}-7-oxo-2,6-diazabicyclo[3.2.0]heptane-6-sulfonic acid], for which the “MIC of antibiotic at fixed inhibitor concentration (4 mg/L)” value is less than 0.06 µg/mL in experiment [1]; 8 µg/mL in the experiment on Acinetobacter sp. J2; 4 µg/mL in experiment [2]; 32 µg/mL in experiment [3]; 0.25 µg/mL in the experiment with Serratia marcescens S6; less than 0.06 µg/mL in experiment [4]. The “MIC of antibiotic at fixed inhibitor concentration (4 mg/L)” value in the experiment on Enterobacter cloacae P99 came to 32 µg/mL.

With `Nc1nc(CC(=O)N2CC[C@@H]3[C@H]2C(=O)N3S(=O)(=O)O)cs1` [Compound 401], the “MIC of antibiotic at fixed inhibitor concentration (4 mg/L)” value in experiment [1] was 0.125 µg/mL; in the experiment on Acinetobacter sp. J2, 4 µg/mL; in experiment [2], 8 µg/mL; in experiment [3], more than 32 µg/mL; in the experiment with Serratia marcescens S6, 0.125 µg/mL; in experiment [4], 0.5 µg/mL. In addition, in the experiment on Enterobacter cloacae P99, the “MIC of antibiotic at fixed inhibitor concentration (4 mg/L)” value worked out at 16 µg/mL.

Consider `C[C@H](ON1C(=O)[C@@H](NC(=O)/C(=N\OCc2cc(=O)c(O)cn2O)c2csc(N)n2)[C@@H]1C)C(=O)O` [Compound 23, (2S)-2-((3S,4S)-3-{(2Z)-2-(2-amino(1,3-thiazol-4-yl))-3-[(1,5-dihydroxy-4-oxo(2-hydropyridyl))methoxy]-3-azaprop-2enoylamino}-4-methyl-2-oxoazetidinyloxy)propanoic acid], for which the MIC of antibiotic in experiment [1] (Stenotrophomonas maltophilia 1AC736, antibiotic alone, no inhibitor) is 1 µg/mL; in the experiment with Acinetobacter sp. J2 (Acinetobacter baumannii J2, antibiotic alone, no inhibitor), 16 µg/mL; in experiment [2] (antibiotic alone, no inhibitor) it was 8 µg/mL; in experiment [3] (antibiotic alone, no inhibitor), 8 µg/mL; with Serratia marcescens S6 (antibiotic alone, no inhibitor) it was 0.25 µg/mL; in experiment [4] (antibiotic alone, no inhibitor) it was more than 32 µg/mL. For the same compound, in the experiment with Enterobacter cloacae P99 (antibiotic alone, no inhibitor), the MIC of antibiotic was more than 32 µg/mL. Moreover, the “MIC of antibiotic at fixed inhibitor concentration of 4 mg/L” value in the experiment on Acinetobacter sp. J2 (Acinetobacter baumannii J2, with 102 and clavulanate) is 8 µg/mL; in the experiment with Acinetobacter sp. J2 (Acinetobacter baumannii J2, with 324 and clavulanate) it was 8 µg/mL; in the experiment with Acinetobacter sp. J2 (Acinetobacter baumannii J2, with 324 and sulbactam) it was 2 µg/mL; in experiment [2] (with 102 and clavulanate), 8 µg/mL; in experiment [2] (with 324 and clavulanate), 16 µg/mL; in experiment [2] (with 324 and sulbactam) it was 16 µg/mL. The “MIC of antibiotic at fixed inhibitor concentration of 4 mg/L” value came out at 8 µg/mL in experiment [3] (with 102 and clavulanate); 8 µg/mL in experiment [3] (with 324 and clavulanate); 8 µg/mL in experiment [3] (with 324 and sulbactam); 0.25 µg/mL with Serratia marcescens S6 (with 102 and clavulanate); 0.25 µg/mL in the experiment on Serratia marcescens S6 (with 324 and clavulanate); 0.5 µg/mL with Serratia marcescens S6 (with 324 and sulbactam). In addition, the “MIC of antibiotic at fixed inhibitor concentration of 4 mg/L” value in experiment [4] (with 102 and clavulanate) came to 1 µg/mL; in experiment [4] (with 324 and clavulanate) it was 1 µg/mL; in experiment [4] (with 324 and sulbactam), 2 µg/mL; with Enterobacter cloacae P99 (with 102 and clavulanate), 8 µg/mL; in the experiment on Enterobacter cloacae P99 (with 324 and clavulanate), 4 µg/mL; in the experiment with Enterobacter cloacae P99 (with 324 and sulbactam), 8 µg/mL.

In the case of `CC(=O)Nc1cccc(NC(=O)N2CC[C@@H]3[C@H]2C(=O)N3S(=O)(=O)[O-])c1.[Na+]` [Compound 307, Sodium(1S,5R)-2-{N-[3-(acetylamino)phenyl]carbamoyl}-7-oxo-2,6-diazabicyclo[3.2.0]heptane-6-sulfonate], the “MIC of antibiotic at fixed inhibitor concentration (4 mg/L)” value in experiment [1] was 0.125 µg/mL; with Acinetobacter sp. J2, more than 32 µg/mL; in experiment [2], 8 µg/mL; in experiment [3], more than 32 µg/mL; in the experiment on Serratia marcescens S6 it was 0.25 µg/mL; in experiment [4] it was 2 µg/mL. Also, the “MIC of antibiotic at fixed inhibitor concentration (4 mg/L)” value in the experiment on Enterobacter cloacae P99 is 32 µg/mL.

For the compound `Cc1nnc(SCC(=O)N2CC[C@@H]3[C@H]2C(=O)N3S(=O)(=O)[O-])s1.[Na+]` [Compound 202, Sodium(1S,5R)-2-[2-(1-methyl(1,3,4-thiadiazol-2-ylthio))acetyl]-7-oxo-2,6-diazabicyclo[3.2.0]heptane-6-sulfonate], the “MIC of antibiotic at fixed inhibitor concentration (4 mg/L)” value in experiment [1] turned out to be 0.125 µg/mL; in the experiment with Acinetobacter sp. J2, 4 µg/mL; in experiment [2], 4 µg/mL; in experiment [3], 8 µg/mL; in the experiment on Serratia marcescens S6, 0.5 µg/mL; in experiment [4], 2 µg/mL. The “MIC of antibiotic at fixed inhibitor concentration (4 mg/L)” value with Enterobacter cloacae P99 worked out at 16 µg/mL.

For `CC1(C)S[C@@H]2[C@H](NC(=O)[C@H](N)c3ccc(O)cc3)C(=O)N2[C@H]1C(=O)O` [Amoxicillin, amoxicillin, reference compound], the “MIC of antibiotic at fixed inhibitor concentration of 4 mg/L” value in experiment [1] (Stenotrophomonas maltophilia 1AC736, with clavulanate (clavulanic acid)) is more than 32 µg/mL; in the experiment with Acinetobacter sp. J2 (Acinetobacter baumannii J2, with clavulanate (clavulanic acid)), more than 32 µg/mL; in experiment [2] (setting [5]) it was more than 32 µg/mL; in experiment [3] (setting [5]), more than 32 µg/mL; in the experiment with Serratia marcescens S6 (setting [5]), more than 32 µg/mL; in experiment [4] (setting [5]) it was 32 µg/mL. The “MIC of antibiotic at fixed inhibitor concentration of 4 mg/L” value in the experiment with Enterobacter cloacae P99 (setting [5]) was more than 32 µg/mL.

Consider `O=C(NCc1cccs1)N1CC[C@@H]2[C@H]1C(=O)N2S(=O)(=O)[O-].[Na+]` [Compound 314], for which the “MIC of antibiotic at fixed inhibitor concentration (4 mg/L)” value in experiment [1] is 0.125 µg/mL; with Acinetobacter sp. J2, 4 µg/mL; in experiment [2], 4 µg/mL; in experiment [3], more than 32 µg/mL; in the experiment on Serratia marcescens S6 it was 0.25 µg/mL; in experiment [4], 1 µg/mL. In the experiment on Enterobacter cloacae P99, the “MIC of antibiotic at fixed inhibitor concentration (4 mg/L)” value worked out at 32 µg/mL.

With `O=C(CSc1nnnn1-c1ccccc1)N1CC[C@@H]2[C@H]1C(=O)N2S(=O)(=O)[O-].[Na+]` [Compound 201], the “MIC of antibiotic at fixed inhibitor concentration (4 mg/L)” value in experiment [1] was 0.125 µg/mL; in the experiment with Acinetobacter sp. J2, 4 µg/mL; in experiment [2] it was 8 µg/mL; in experiment [3], 32 µg/mL; in the experiment on Serratia marcescens S6, 2 µg/mL; in experiment [4] it was more than 32 µg/mL. In addition, the “MIC of antibiotic at fixed inhibitor concentration (4 mg/L)” value in the experiment on Enterobacter cloacae P99 came out at 32 µg/mL.

`CC(C)c1cc[n+](CC(=O)N2CC[C@@H]3[C@H]2C(=O)N3S(=O)(=O)[O-])cc1` [Compound 113, (1S,5R)-2-{2-[4-(isopropyl)pyridinium]acetyl}-7-oxo-2,6-diazabicyclo[3.2.0]heptane-6-sulfonate, inner salt]: the “MIC of antibiotic at fixed inhibitor concentration (4 mg/L)” value is 0.25 µg/mL in experiment [1]; more than 32 µg/mL in the experiment with Acinetobacter sp. J2; 4 µg/mL in experiment [2]; more than 32 µg/mL in experiment [3]; 0.25 µg/mL with Serratia marcescens S6; 0.125 µg/mL in experiment [4]. Further, the “MIC of antibiotic at fixed inhibitor concentration (4 mg/L)” value in the experiment on Enterobacter cloacae P99 is 32 µg/mL.
